Measurements reported in patent US7265129B2, “Anti-infective biaryl compounds” (priority 2002, dated 2007).

Assays:
[1] = system: S. epidermidis ATCC 12228; experiment: MIC, S. epidermidis; format: cell-based, Staphylococcus epidermidis; settings: Table C
Experimental: (§1) Compounds according to this invention were screened for their in vitro activities against selected species of bacteria and fungi. The minimal inhibition concentration (MIC) of these compounds was determined using the National Committee for Clinical Laboratory Standards (NCCLS) broth microdilution assay in microtiter plates, as set forth in: (1) the guidelines of the National Committee for Clinical Laboratory Standards (NCCLS) Document M7-A4 (NCCLS, 1997); (2) the guidelines of the National Committee for Clinical Laboratory Standards (NCCLS) Document M11-A4 (NCCLS, 1997); and (3) the guidelines and reference method of the National Committee for Clinical Laboratory Standards (NCCLS) Document M27-T (NCCLS, 1995). For antifungal assays, the method recommended in Murray, P R., 1995 Manual of Clinical Microbiology (ASM Press, Washington, D.C.), was employed.
(§2) Additionally, some compounds were screened against Enterococcus faccium (ATCC 51559, a vancomycin resistant strain (VRE)), Staphylococcus epidermidis (ATCC 12228), Streptococcus pneumoniae (ATCC 51422, a penicillin resistant strain (PRSP)), and/or Streptococcus pyogenes (ATCC 49399).

[2] = MIC, Table C (organism not given); format: cell-based
Experimental: as §1, §2

S. pneumoniae ATCC 49619 = experiment: MIC, NCCLS broth microdilution, S. pneumoniae; format: cell-based, Streptococcus pneumoniae
Outline: (§3)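 Readout is the minimal inhibition concentration, obtained by NCCLS broth microdilution in microtiter plates. Bacterial testing followed NCCLS documents M7-A4 and M11-A4 […]; the antifungal assay followed Murray's Manual of Clinical Microbiology recommendation.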

C. albicans ATCC 38247 = experiment: MIC, antifungal assay, C. albicans; format: cell-based, Candida albicans
Outline: as §3

S. aureus ATCC 33591 = experiment: MIC, NCCLS broth microdilution, S. aureus ATCC 33591; format: cell-based, Staphylococcus aureus
Outline: as §3

S. aureus ATCC 27660 = experiment: MIC, NCCLS broth microdilution, S. aureus MRSA; format: cell-based, Staphylococcus aureus; settings: S. aureus ATCC 27660, methicillin resistant strain (MRSA)
Outline: as §3

S. aureus ATCC 13709 = experiment: MIC, NCCLS broth microdilution, S. aureus MSSA; format: cell-based, Staphylococcus aureus; settings: S. aureus ATCC 13709, methicillin sensitive strain (MSSA)
Outline: as §3

E. faecalis ATCC 29212 = experiment: MIC, NCCLS broth microdilution, E. faecalis; format: cell-based, Enterococcus faecalis
Outline: as §3

B. cereus ATCC 11778 = experiment: MIC, NCCLS broth microdilution, B. cereus; format: cell-based, Bacillus cereus
Outline: as §3

E. faecium ATCC 51559 = experiment: MIC, E. faecium VRE; format: cell-based, Enterococcus faccium; settings: Table C; E. faecium ATCC 51559, vancomycin resistant strain (VRE)
Experimental: as §1, §2

Structure (SMILES)	Minimum Inhibitory Concentration (MIC), organism B [1]	Minimum Inhibitory Concentration (MIC), organism E [2]	Minimum Inhibitory Concentration (MIC), organism G (S. pneumoniae ATCC 49619)	Minimum Inhibitory Concentration (MIC), organism B (C. albicans ATCC 38247)	Minimum Inhibitory Concentration (MIC), organism F (S. aureus ATCC 33591)	Minimum Inhibitory Concentration (MIC), organism E (S. aureus ATCC 27660)	Minimum Inhibitory Concentration (MIC), organism D (S. aureus ATCC 13709)	Minimum Inhibitory Concentration (MIC), organism C (E. faecalis ATCC 29212)	Minimum Inhibitory Concentration (MIC), organism A (B. cereus ATCC 11778)	Minimum Inhibitory Concentration (MIC), organism A (E. faecium ATCC 51559)
CN(C)CCCn1cc(NC(=O)c2cc3ccccc3cn2)cc1C(=O)Nc1cc(-c2nc3ccccc3[nH]2)n(C)c1 [Compound A-1]	+++ (MIC ≦ 4 pg/mL)	+++ (MIC ≦ 4 pg/mL)	+++ (MIC ≦ 4 μg/mL)	+++ (MIC ≦ 4 μg/mL)	+++ (MIC ≦ 4 μg/mL)	+++ (MIC ≦ 4 μg/mL)	+++ (MIC ≦ 4 μg/mL)	+++ (MIC ≦ 4 μg/mL)	+++ (MIC ≦ 4 μg/mL)	+++ (MIC ≦ 4 pg/mL)
Cc1ccc2nc(-c3cc(NC(=O)c4cc(NC(=O)c5cc6ccccc6cn5)cn4C)cn3C)[nH]c2c1 [Compound A-2]	+++ (MIC ≦ 4 pg/mL)	+++ (MIC ≦ 4 pg/mL)	+++ (MIC ≦ 4 μg/mL)	>32 µg/mL	+++ (MIC ≦ 4 μg/mL)	+++ (MIC ≦ 4 μg/mL)	+++ (MIC ≦ 4 μg/mL)	+++ (MIC ≦ 4 μg/mL)	+++ (MIC ≦ 4 μg/mL)	+++ (MIC ≦ 4 pg/mL)
Cn1cc(NC(=O)c2cc(NC(=O)c3ccc(Cl)cc3F)cn2CCCN2CCC(O)CC2)cc1-c1nc2cccnc2[nH]1 [Compound A-42]	–	–	+++ (MIC ≦ 4 μg/mL)	+ (12 ≦ MIC ≦ 32 μg/mL)	+++ (MIC ≦ 4 μg/mL)	+++ (MIC ≦ 4 μg/mL)	+++ (MIC ≦ 4 μg/mL)	+++ (MIC ≦ 4 μg/mL)	+++ (MIC ≦ 4 μg/mL)	–
Cn1cc(NC(=O)c2cc(NC(=O)c3ccc(Cl)cc3F)cn2CCCN(CCO)CCO)cc1-c1nc2cccnc2[nH]1 [Compound A-44]	–	–	+++ (MIC ≦ 4 μg/mL)	>32 µg/mL	+++ (MIC ≦ 4 μg/mL)	+++ (MIC ≦ 4 μg/mL)	++ (4 < MIC < 12 μg/mL)	++ (4 < MIC < 12 μg/mL)	+ (12 ≦ MIC ≦ 32 μg/mL)	–
CN(C)CCCn1cc(NC(=O)c2ccc(Cl)cc2F)cc1C(=O)Nc1cc(-c2nc3cncnc3[nH]2)n(C)c1 [Compound A-46]	–	–	+++ (MIC ≦ 4 μg/mL)	>32 µg/mL	+++ (MIC ≦ 4 μg/mL)	+++ (MIC ≦ 4 μg/mL)	+++ (MIC ≦ 4 μg/mL)	+++ (MIC ≦ 4 μg/mL)	+++ (MIC ≦ 4 μg/mL)	–
Cn1cc(NC(=O)c2sccc2Cl)cc1C(=O)Nc1cc(-c2nc3ccccc3[nH]2)n(C)c1 [Compound A-47]	–	–	+++ (MIC ≦ 4 μg/mL)	+ (12 ≦ MIC ≦ 32 μg/mL)	+++ (MIC ≦ 4 μg/mL)	+++ (MIC ≦ 4 μg/mL)	+++ (MIC ≦ 4 μg/mL)	+++ (MIC ≦ 4 μg/mL)	+++ (MIC ≦ 4 μg/mL)	–
CC1CCN(CCCn2cc(NC(=O)c3sccc3Cl)cc2C(=O)Nc2cc(-c3nc4ccccc4[nH]3)n(C)c2)CC1 [Compound A-52]	–	–	+++ (MIC ≦ 4 μg/mL)	+ (12 ≦ MIC ≦ 32 μg/mL)	+++ (MIC ≦ 4 μg/mL)	+++ (MIC ≦ 4 μg/mL)	+++ (MIC ≦ 4 μg/mL)	+++ (MIC ≦ 4 μg/mL)	+++ (MIC ≦ 4 μg/mL)	–
Cn1cc(NC(=O)c2cc(NC(=O)c3sccc3Cl)cn2CCCN2CCC(O)CC2)cc1-c1nc2ccccc2[nH]1 [Compound A-53]	–	–	+++ (MIC ≦ 4 μg/mL)	+ (12 ≦ MIC ≦ 32 μg/mL)	+++ (MIC ≦ 4 μg/mL)	+++ (MIC ≦ 4 μg/mL)	+++ (MIC ≦ 4 μg/mL)	++ (4 < MIC < 12 μg/mL)	+++ (MIC ≦ 4 μg/mL)	–
Cn1cc(NC(=O)c2cc(NC(=O)c3sccc3Cl)cn2CCCN(CCO)CCO)cc1-c1nc2ccccc2[nH]1 [Compound A-55]	–	–	++ (4 < MIC < 12 μg/mL)	>32 µg/mL	++ (4 < MIC < 12 μg/mL)	++ (4 < MIC < 12 μg/mL)	+ (12 ≦ MIC ≦ 32 μg/mL)	+ (12 ≦ MIC ≦ 32 μg/mL)	+ (12 ≦ MIC ≦ 32 μg/mL)	–
Cn1cc(NC(=O)c2cc(NC(=O)c3sccc3Cl)cn2CCC[n+]2ccccc2)cc1-c1nc2ccccc2[nH]1 [Compound A-56]	–	–	>32 µg/mL	>32 µg/mL	+ (12 ≦ MIC ≦ 32 μg/mL)	+ (12 ≦ MIC ≦ 32 μg/mL)	+ (12 ≦ MIC ≦ 32 μg/mL)	>32 µg/mL	>32 µg/mL	–
Cn1cc(NC(=O)c2cc(NC(=O)c3sccc3Cl)cn2CCC[n+]2ccccc2)cc1-c1nc2ncccc2[nH]1 [Compound A-62]	–	–	+ (12 ≦ MIC ≦ 32 μg/mL)	>32 µg/mL	+ (12 ≦ MIC ≦ 32 μg/mL)	+ (12 ≦ MIC ≦ 32 μg/mL)	>32 µg/mL	>32 µg/mL	>32 µg/mL	–
CN(C)CCCn1cc(NC(=O)c2sccc2Cl)cc1C(=O)Nc1cc(-c2nc3ncncc3[nH]2)n(C)c1 [Compound A-63]	–	–	+++ (MIC ≦ 4 μg/mL)	>32 µg/mL	+ (12 ≦ MIC ≦ 32 μg/mL)	+ (12 ≦ MIC ≦ 32 μg/mL)	+ (12 ≦ MIC ≦ 32 μg/mL)	+ (12 ≦ MIC ≦ 32 μg/mL)	>32 µg/mL	–
